# Results as given in patent US20240016942A1, “STAT DEGRADERS AND USES THEREOF” (Kymera Therapeutics, Inc., priority 2020, published 2024).
# Biological target: T1, STAT3 (Homo sapiens, UniProt P40763)
# T1 construct: expressed in transfected cells; host or cells: A549
# Test: STAT3 HiBiT degradation assay (Nano-Glo HiBiT lytic detection) in transfected A549 cells
# Assay type: cell-based
# Details: 24 h compound incubation, read-out: STAT3 HiBIT A549 degradation 24 h: Average external-Abs DC50
# Protocol: Example 1. HiBiT Assay Protocol
# Compound preparation and Cell seeding: The transfected A549 cells were harvested from dish into cell culture medium and cell numbers counted. Cells were diluted with culture medium to the desired density and 30 μL of cell suspension (about 2000 cells/well) were added into each well of a 384-well cell culture plate as designated and transferred into 37° C. 5% CO2 incubator for 24 h. Compounds were dissolved to 10 mM stock solution and 12 μL of the stock solution was transferred to a 384 LDV-plate. 3 fold, 10-point dilution was performed by transferring 4 μL compound into 8 μL DMSO using a TECAN (EVO200) liquid handler. 30 μl of diluted compound from compound source plate was transferred into the cell plate as designated by using Echo550 and transferred into 37° C. 5% CO2 incubator for 24 h.
# Detection: Plates were removed from incubators and equilibrated at room temperature for 15 minutes. Nano-Glo Hibit Lytic Detection reagent (Promega Cat #N3040) was thawed and equilibrated to room temperature before the experiment. 30 μL of Nano-Glo Hibit Lytic Detection reagent was added into each well to be detected. The plates were held at room temperature for 10 min followed by reading on EnSpire.
# Data analysis: The remaining activity was calculated following the formula: Remaining Activity (%)=100%×(Lumsample−LumNC)/(LumPC−LumNC). Calculate the IC50 by fitting the curve using Xlfit (v5.3.1.3), equation 201: fit=(A+((B−A)/(1+((x/C)^D)))); A: Botton; B: Top; C: IC50; and D: Slope.
# The letter codes for STAT3 DC50 include: A (<0.01 μM), B (0.01-0.1 μM), C (0.1-1.0 μM), and D (>1.0 μM).
# T1 sequence (P40763 whole entry): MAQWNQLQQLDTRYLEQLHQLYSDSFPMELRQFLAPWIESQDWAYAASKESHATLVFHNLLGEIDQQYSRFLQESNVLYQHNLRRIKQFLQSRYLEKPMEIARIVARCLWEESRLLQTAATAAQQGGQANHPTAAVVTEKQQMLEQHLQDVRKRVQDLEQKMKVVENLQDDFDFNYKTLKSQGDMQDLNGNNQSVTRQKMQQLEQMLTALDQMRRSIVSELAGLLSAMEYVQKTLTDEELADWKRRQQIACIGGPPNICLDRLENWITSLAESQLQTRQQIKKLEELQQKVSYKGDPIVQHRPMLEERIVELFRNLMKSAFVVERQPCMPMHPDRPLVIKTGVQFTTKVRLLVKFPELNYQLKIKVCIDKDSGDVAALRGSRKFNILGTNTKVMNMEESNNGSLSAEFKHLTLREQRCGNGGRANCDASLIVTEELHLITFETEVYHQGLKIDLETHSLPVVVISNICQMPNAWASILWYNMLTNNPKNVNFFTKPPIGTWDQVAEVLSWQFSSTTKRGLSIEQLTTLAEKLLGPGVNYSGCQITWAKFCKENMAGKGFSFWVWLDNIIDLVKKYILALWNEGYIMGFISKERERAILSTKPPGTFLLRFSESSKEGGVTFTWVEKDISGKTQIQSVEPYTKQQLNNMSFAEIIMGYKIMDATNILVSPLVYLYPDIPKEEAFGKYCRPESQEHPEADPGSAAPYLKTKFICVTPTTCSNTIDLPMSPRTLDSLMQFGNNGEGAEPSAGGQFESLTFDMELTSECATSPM
row,SMILES,DC50 [nM]
1,"Cn1c(=O)n(C2CCC(=O)NC2=O)c2ccc(NCCCCCc3cc4c5c(c3)C[C@@H](C(=O)N[C@@H](CCC(N)=O)C(=O)NCc3ccc(S(C)(=O)=O)cc3)N5C(=O)[C@@H](NC(=O)c3cc5cc(C(=O)P(=O)(O)O)ccc5[nH]3)CC4)cc21 (stereo partly drawn) [I-57, 2-[[(2S,11S)-2-[[(1S)-3-carbamoyl-1-[[(4-methanesulfonylphenyl)methyl]carbamoyl]propyl]carbamoyl]-6-(5-[[1-(2,6-dioxopiperidin-3-yl)-3-methyl-2-oxo-1,3-benzodiazol-5-yl]amino]pentyl)-12-oxo-1-azatricyclo[6.4.1.0^[4,13]]trideca-4(13),5,7-trien-11-yl]carbamoyl]-1H-indole-5-carbonylphosphonic acid]",10 to 100
2,Cc1ncsc1-c1ccc([C@H](C)NC(=O)[C@@H]2C[C@@H](O)CN2C(=O)[C@@H](NC(=O)CCCc2cccc(OC[C@H](CCC(N)=O)NC(=O)[C@@H]3CCCN3C(=O)[C@H](C)NC(=O)c3cc4cc(C(=O)P(=O)(O)O)ccc4[nH]3)c2Cl)C(C)(C)C)cc1 [I-58],10 to 100
3,"CC(C)c1ccc(CNC(=O)[C@H](CCC(N)=O)NC(=O)[C@@H]2CC[C@@H]3CCN(C(=O)[C@H]4CC[C@@H](CCc5ccc6c(c5)n(C)c(=O)n6C5CCC(=O)NC5=O)CC4)C[C@H](NC(=O)c4cc5cc(C(=O)P(=O)(O)O)ccc5[nH]4)C(=O)N32)cc1 (stereo partly drawn) [I-59, (2-(((5S,8S,10aR)-8-(((S)-5-amino-1-((4-isopropylbenzyl)amino)-1,5-dioxopentan-2-yl)carbamoyl)-3-((1r,4R)-4-(2-(1-(2,6-dioxopiperidin-3-yl)-3-methyl-2-oxo-2,3-dihydro-1H-benzo[d]imidazol-5-yl)ethyl)cyclohexane-1-carbonyl)-6-oxodecahydropyrrolo[1,2-a][1,5]diazocin-5-yl)carbamoyl)-1H-indole-5-carbonyl)phosphonic acid]",10 to 100
4,Cc1ncsc1-c1ccc([C@H](C)NC(=O)[C@@H]2C[C@@H](O)CN2C(=O)[C@@H](NC(=O)CCCc2cccc(OC[C@H](CCC(N)=O)NC(=O)[C@@H]3CC[C@@H]4CCN(C(=O)c5cccc(F)c5)C[C@H](NC(=O)c5cc6cc(C(=O)P(=O)(O)O)ccc6[nH]5)C(=O)N43)c2Cl)C(C)(C)C)cc1 [I-60],10 to 100
5,Cc1ncsc1-c1ccc([C@H](C)NC(=O)[C@@H]2C[C@@H](O)CN2C(=O)[C@@H](NC(=O)CCCc2cccc(OC[C@H](CCC(N)=O)NC(=O)[C@@H]3CCCN3C(=O)[C@H](Cc3c[nH]cn3)NC(=O)c3cc4cc(C(=O)P(=O)(O)O)ccc4[nH]3)c2Cl)C(C)(C)C)cc1 [I-61],10 to 100
6,CCS(=O)(=O)c1ccc(CNC(=O)[C@H](CCC(N)=O)NC(=O)[C@@H]2CC[C@@H]3CCN(C(=O)C[C@H]4CC[C@@H](Cc5ccc6c(c5)n(C)c(=O)n6C5CCC(=O)NC5=O)CC4)C[C@H](NC(=O)c4cc5cc(C(=O)P(=O)(O)O)ccc5[nH]4)C(=O)N32)cc1 (stereo partly drawn) [I-62],10 to 100
7,Cc1ncsc1-c1ccc(CNC(=O)[C@@H]2C[C@@H](O)CN2C(=O)[C@@H](c2cc(OCCCc3cccc(OC[C@H](CCC(N)=O)NC(=O)[C@@H]4Cc5cccc6c5N4C(=O)[C@@H](NC(=O)c4cc5cc(C(=O)P(=O)(O)O)ccc5[nH]4)CC6)c3Cl)no2)C(C)C)cc1 [I-63],< 10
8,CN1C(=O)CCC(n2c(=O)n(C)c3cc(C[C@H]4CC[C@@H](CC(=O)N5CC[C@H]6CC[C@@H](C(=O)N[C@@H](CCC(N)=O)C(=O)NC(c7ccccc7)c7ccccc7)N6C(=O)[C@@H](NC(=O)c6cc7cc(C(=O)P(=O)(O)O)ccc7[nH]6)C5)CC4)ccc32)C1=O (stereo partly drawn) [I-64],> 1000
9,"C[C@H](NC(=O)[C@@H]1Cc2cc(CCCCCCc3ccc4c(c3)n(C)c(=O)n4C3CCC(=O)NC3=O)cc3c2N1C(=O)[C@@H](NC(=O)c1cc2cc(C(=O)P(=O)(O)O)ccc2[nH]1)CC3)C(=O)NCc1ccc(S(C)(=O)=O)cc1 (stereo partly drawn) [I-65, 2-[[(2S,11S)-6-[6-[1-(2,6-dioxopiperidin-3-yl)-3-methyl-2-oxo-1,3-benzodiazol-5-yl]hexyl]-2-[[(1S)-1-[[(4-methanesulfonylphenyl)methyl]carbamoyl]ethyl]carbamoyl]-12-oxo-1-azatricyclo[6.4.1.0^[4,13]]trideca-4(13),5,7-trien-11-yl]carbamoyl]-1H-indole-5-carbonylphosphonic acid]",> 1000
